# Assay results from US20220356174A1, “PYRIDIN-2-ONE COMPOUNDS USEFUL AS SMARCA2 ANTAGONISTS” (Epizyme, Inc., priority 2018, published 2022).
# Target: T1, FL-SMARCA2 (full-length human SMARCA2 isoform 1) (Homo sapiens, UniProt P51531)
# T1 construct: FLAG tag (YKDDDDK) (C); made in house; host or cells: Sf21 insect cells (baculovirus, pFastBacI)
# Experiment: SMARCA2 ATPase activity assay (ADP-Glo, chicken mononucleosome substrate)
# Assay type: biochemical
# Conditions: Table 3a.1; SMARCA2 5 nM, ATP 250 uM, mononucleosome 10 nM
# Excerpt: Molecular Biology: Full-length human SMARCA2 isoform 1 (P51531) transcript clone was amplified from a cDNA library incorporating an N-terminal HIS tag ([…]) fused directly to Ser2 of SMARCA2 and a C-FLAG tag (YKDDDDK) fused directly to Glu1590 of SMARCA2. The amplified gene was subcloned into pFastBacI (Life Technologies).
# Protein Expression: Recombinant baculovirus were generated and protein over-expression was accomplished by infecting exponentially growing Sf21 insect cell culture at 1.24×10^6 cell/ml with an MOI of 0.1. Infections were carried out for 76 hours, harvested by centrifugation, and stored at −80° C. for purification.
# Expressed full-length SMARCA2 was purified from cell paste by FLAG affinity chromatography followed by anion exchange chromatography. The protein was dialyzed into a storage buffer containing 25 mM HEPES, 300 mM KCl, 10% Glycerol, pH 7.9, 1 mM TCEP and 0.01% Tween-20. The purity of the protein was measured as 74% using micro-capillary based gel electrophoresis.
# T1 sequence (P51531 with tags, fused parts or gaps): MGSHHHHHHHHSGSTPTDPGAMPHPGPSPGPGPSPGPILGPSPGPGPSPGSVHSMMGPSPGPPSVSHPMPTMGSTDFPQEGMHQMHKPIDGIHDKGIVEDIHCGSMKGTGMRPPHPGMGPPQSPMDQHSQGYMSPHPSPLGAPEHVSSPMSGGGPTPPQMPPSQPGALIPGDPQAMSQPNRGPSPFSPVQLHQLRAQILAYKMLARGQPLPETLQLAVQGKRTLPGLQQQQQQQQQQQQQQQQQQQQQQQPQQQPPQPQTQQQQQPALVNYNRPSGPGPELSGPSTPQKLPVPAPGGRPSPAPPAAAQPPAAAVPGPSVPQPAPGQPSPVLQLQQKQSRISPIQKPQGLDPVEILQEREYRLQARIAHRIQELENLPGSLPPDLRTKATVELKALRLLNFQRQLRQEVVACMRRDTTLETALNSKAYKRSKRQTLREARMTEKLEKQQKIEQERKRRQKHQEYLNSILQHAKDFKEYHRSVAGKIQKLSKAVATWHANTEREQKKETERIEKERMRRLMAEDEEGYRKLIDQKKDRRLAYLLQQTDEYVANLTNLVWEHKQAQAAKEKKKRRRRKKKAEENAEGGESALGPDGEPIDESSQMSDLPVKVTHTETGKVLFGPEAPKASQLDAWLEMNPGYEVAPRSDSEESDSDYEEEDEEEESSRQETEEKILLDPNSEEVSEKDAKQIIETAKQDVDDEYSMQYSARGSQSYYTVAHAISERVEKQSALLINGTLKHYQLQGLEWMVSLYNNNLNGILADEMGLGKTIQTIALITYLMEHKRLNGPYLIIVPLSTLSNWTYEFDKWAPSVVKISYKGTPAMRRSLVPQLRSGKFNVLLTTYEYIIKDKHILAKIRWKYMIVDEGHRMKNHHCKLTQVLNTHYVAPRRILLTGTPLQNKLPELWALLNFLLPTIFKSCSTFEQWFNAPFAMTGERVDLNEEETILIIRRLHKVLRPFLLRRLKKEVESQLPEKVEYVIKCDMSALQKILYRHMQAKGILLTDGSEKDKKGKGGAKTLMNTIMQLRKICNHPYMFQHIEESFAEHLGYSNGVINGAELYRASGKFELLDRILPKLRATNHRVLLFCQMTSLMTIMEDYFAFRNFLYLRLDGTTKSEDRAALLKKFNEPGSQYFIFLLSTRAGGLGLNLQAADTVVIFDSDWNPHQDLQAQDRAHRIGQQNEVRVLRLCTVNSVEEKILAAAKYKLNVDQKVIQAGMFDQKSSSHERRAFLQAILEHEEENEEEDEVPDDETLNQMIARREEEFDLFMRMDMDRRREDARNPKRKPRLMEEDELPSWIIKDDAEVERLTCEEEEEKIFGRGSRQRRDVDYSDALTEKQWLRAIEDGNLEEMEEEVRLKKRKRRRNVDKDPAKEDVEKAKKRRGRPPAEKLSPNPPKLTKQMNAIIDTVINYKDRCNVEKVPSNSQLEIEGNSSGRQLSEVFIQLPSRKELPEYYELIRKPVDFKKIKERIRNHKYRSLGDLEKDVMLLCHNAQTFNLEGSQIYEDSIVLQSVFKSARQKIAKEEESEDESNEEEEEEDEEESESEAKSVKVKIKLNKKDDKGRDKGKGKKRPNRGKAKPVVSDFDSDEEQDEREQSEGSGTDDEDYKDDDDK
row,SMILES,IC50 [µM]
1,CCn1cc(NC(=O)c2nc3cc(F)c(Cl)cc3s2)ccc1=O [Compound 46a],42.7
2,CCn1cc(NC(=O)c2cn3cc(Cl)c(F)cc3n2)ccc1=O [Compound 45a],> 50
3,CN1CC(C(=O)Nc2cc(F)c(=O)n(CCF)c2)CCC1=O (stereo not drawn) [Compound 49a],> 50
4,CCn1cc(NC(=O)c2sc3ccccc3c2C)ccc1=O [Compound 40a],> 50
5,CO[C@H]1C[C@@H](C(=O)Nc2cc(Cl)c(=O)n(C)c2)N(C)C1 [Compound 11a],> 50
6,CCn1cc(NC(=O)c2cn3ccccc3n2)ccc1=O [Compound 20a],> 50
7,CCn1cc(NC(=O)c2cnc3ccccn23)ccc1=O [Compound 19a],> 50

# Same assay, conditions: Table 3c.1; ATPase assay, enzyme 5 nM, ATP 250 uM, chicken mononucleosome 10 nM, 30 min preincubation
row,SMILES,IC50 [µM]
1,O=C(Nc1cc(CO)c(=O)n(CC(F)F)c1)c1cc(F)c(Cl)s1 [Compound 12c],34.8
2,O=C(Nc1cc(F)c(=O)n(CC(F)F)c1)c1cc(C#Cc2cn3ccccc3n2)c(Cl)s1 [Compound 6c],0.901
3,O=C(Nc1cc(F)c(=O)n(CC(F)F)c1)c1cc2cc(-c3ccncc3)ccc2s1 [Compound 84c],1.85
4,O=C(Nc1cc(F)c(=O)n(CC(F)F)c1)c1cc2c(s1)C(F)(F)CNC2 [Compound 114c],30.5

# Same assay, conditions: Table 3.1; ATPase assay, enzyme 5 nM, ATP 250 uM, chicken mononucleosome 10 nM, 30 min preincubation
row,SMILES,IC50 [µM]
1,CC(=O)Nc1sc(C(=O)Nc2cc(F)c(=O)n(CCF)c2)cc1Cl [Compound 315],> 50
2,CCn1cc(NC(=O)c2cc(CN(C)C)cs2)ccc1=O [Compound 98],> 50
3,CCc1cc(NC(=O)c2cc(Cl)c(Cl)s2)cn(C)c1=O [Compound 185],> 50
4,Cn1cc(C(=O)Nc2cc(F)c(=O)n(CCF)c2)sc1=O [Compound 227],> 50
5,Cn1cc(NC(=O)c2cc(Cl)cs2)cc(Br)c1=O [Compound 8],> 50
6,CCn1cc(NC(=O)c2cc(Cl)c(Cl)n2C2CC2)ccc1=O [Compound 62],> 50
7,N#Cc1cc(C(=O)Nc2cc(F)c(=O)n(CCF)c2)oc1C#N [Compound 246],1.35
8,CNC(=O)c1sc(C(=O)Nc2cc(F)c(=O)n(CCF)c2)cc1Cl [Compound 278],> 50
9,CCn1cc(NC(=O)c2cnc(NC3CCCC3)s2)ccc1=O [Compound 216],> 50
10,CCn1cc(NC(=O)c2cc(C#N)c(C#N)s2)ccc1=O [Compound 181],0.114
11,O=C(Nc1cc(F)c(=O)n(CCF)c1)c1ccc(-c2cccnc2)s1 [Compound 313],> 50
12,CCn1cc(NC(=O)c2ccc(Cl)s2)ccc1=O [Compound 40],2.63
13,NS(=O)(=O)c1cc(C(=O)Nc2cc(F)c(=O)n(CCF)c2)sc1Cl [Compound 310],> 50
14,CC(C)Cn1cc(NC(=O)c2cc(Cl)c(Cl)s2)ccc1=O [Compound 76],> 50
15,O=C(Nc1cc(F)c(=O)n(CCF)c1)c1cnc(Cl)o1 [Compound 253],> 50
16,CCn1cc(NC(=O)c2ccc(Cl)o2)ccc1=O [Compound 20],> 50
17,CCn1cc(NC(=O)c2cc(Cl)c(-c3ncco3)s2)ccc1=O [Compound 283],33.2

row,SMILES,IC50 [µM]
1,CCn1cc(NC(=O)c2cc(OC)c(OC)s2)ccc1=O [Compound 171],> 50
2,CCn1cc(NC(=O)c2csc(Cl)n2)ccc1=O [Compound 147],17.1
3,CCn1cc(NC(=O)c2cc(Cl)c(Cl)s2)cc(NC)c1=O [Compound 126],46.8
4,CCn1cc(NC(=O)c2cc(C#N)c(Cl)s2)cc(Cl)c1=O [Compound 172],0.238
5,CCn1cc(NC(=O)c2cc(C(F)(F)F)nn2C)ccc1=O [Compound 15],> 50
6,CCn1cc(NC(=O)c2nc(Cl)cs2)ccc1=O [Compound 63],> 50
7,CCn1cc(NC(=O)c2csc(C#N)n2)ccc1=O [Compound 199],> 50
8,O=C(Nc1ccc(=O)n(-c2ccccc2)c1)c1ccc(Br)s1 [Compound 50],> 50
9,CCn1cc(NC(=O)c2cc(Br)cs2)ccc1=O [Compound 45],43.1
10,Cn1c(C(=O)Nc2ccc(=O)n(C3CC3)c2)cc(Cl)c1Cl [Compound 41],> 50
11,CCn1c(C(=O)Nc2ccc(=O)n(CC)c2)cc(Cl)c1Cl [Compound 42],12.6
12,CCn1cc(NC(=O)c2cnc(Cl)[nH]2)ccc1=O [Compound 99],> 50
13,CCn1cc(NC(=O)c2ncc(Br)s2)ccc1=O [Compound 49],> 50
14,CCn1cc(NC(=O)c2snc(Cl)c2Cl)ccc1=O [Compound 34],28.5
15,CCn1cc(NC(=O)c2ccc(I)s2)ccc1=O [Compound 46],11.1
16,CCn1cc(NC(=O)c2cc(Cl)n(C)n2)ccc1=O [Compound 100],> 50

# Same assay, conditions: Table 3d.1; ATPase assay, enzyme 5 nM, ATP 250 uM, chicken mononucleosome 10 nM, 30 min preincubation; read-out: FL-SMARCA2 IC>50
row,SMILES,IC50 [µM]
1,Cc1cc(C)n(-c2ccc(C(=O)Nc3cn(C)c(=O)cc3C)cn2)n1 [Compound 2d],> 50
2,O=C(Nc1cc(F)c(=O)n(CC(F)F)c1)c1n[nH]c(Cl)n1 [Compound 38d],> 50
3,CN(C)C(=O)c1cc(C(=O)Nc2cc(F)c(=O)n(CC(F)F)c2)sc1C(F)(F)F [Compound 36d],36.5
4,CCn1nc(NC(=O)c2cnc(Cl)s2)ccc1=O [Compound 20d],7.37
5,O=C(Nc1ccc(=O)n(CC(F)(F)F)n1)c1cc(Cl)c(Cl)s1 [Compound 21d],16.7

# Target: FL-SMARCA4 (Homo sapiens, UniProt P51532)
# Sequence (P51532 whole entry): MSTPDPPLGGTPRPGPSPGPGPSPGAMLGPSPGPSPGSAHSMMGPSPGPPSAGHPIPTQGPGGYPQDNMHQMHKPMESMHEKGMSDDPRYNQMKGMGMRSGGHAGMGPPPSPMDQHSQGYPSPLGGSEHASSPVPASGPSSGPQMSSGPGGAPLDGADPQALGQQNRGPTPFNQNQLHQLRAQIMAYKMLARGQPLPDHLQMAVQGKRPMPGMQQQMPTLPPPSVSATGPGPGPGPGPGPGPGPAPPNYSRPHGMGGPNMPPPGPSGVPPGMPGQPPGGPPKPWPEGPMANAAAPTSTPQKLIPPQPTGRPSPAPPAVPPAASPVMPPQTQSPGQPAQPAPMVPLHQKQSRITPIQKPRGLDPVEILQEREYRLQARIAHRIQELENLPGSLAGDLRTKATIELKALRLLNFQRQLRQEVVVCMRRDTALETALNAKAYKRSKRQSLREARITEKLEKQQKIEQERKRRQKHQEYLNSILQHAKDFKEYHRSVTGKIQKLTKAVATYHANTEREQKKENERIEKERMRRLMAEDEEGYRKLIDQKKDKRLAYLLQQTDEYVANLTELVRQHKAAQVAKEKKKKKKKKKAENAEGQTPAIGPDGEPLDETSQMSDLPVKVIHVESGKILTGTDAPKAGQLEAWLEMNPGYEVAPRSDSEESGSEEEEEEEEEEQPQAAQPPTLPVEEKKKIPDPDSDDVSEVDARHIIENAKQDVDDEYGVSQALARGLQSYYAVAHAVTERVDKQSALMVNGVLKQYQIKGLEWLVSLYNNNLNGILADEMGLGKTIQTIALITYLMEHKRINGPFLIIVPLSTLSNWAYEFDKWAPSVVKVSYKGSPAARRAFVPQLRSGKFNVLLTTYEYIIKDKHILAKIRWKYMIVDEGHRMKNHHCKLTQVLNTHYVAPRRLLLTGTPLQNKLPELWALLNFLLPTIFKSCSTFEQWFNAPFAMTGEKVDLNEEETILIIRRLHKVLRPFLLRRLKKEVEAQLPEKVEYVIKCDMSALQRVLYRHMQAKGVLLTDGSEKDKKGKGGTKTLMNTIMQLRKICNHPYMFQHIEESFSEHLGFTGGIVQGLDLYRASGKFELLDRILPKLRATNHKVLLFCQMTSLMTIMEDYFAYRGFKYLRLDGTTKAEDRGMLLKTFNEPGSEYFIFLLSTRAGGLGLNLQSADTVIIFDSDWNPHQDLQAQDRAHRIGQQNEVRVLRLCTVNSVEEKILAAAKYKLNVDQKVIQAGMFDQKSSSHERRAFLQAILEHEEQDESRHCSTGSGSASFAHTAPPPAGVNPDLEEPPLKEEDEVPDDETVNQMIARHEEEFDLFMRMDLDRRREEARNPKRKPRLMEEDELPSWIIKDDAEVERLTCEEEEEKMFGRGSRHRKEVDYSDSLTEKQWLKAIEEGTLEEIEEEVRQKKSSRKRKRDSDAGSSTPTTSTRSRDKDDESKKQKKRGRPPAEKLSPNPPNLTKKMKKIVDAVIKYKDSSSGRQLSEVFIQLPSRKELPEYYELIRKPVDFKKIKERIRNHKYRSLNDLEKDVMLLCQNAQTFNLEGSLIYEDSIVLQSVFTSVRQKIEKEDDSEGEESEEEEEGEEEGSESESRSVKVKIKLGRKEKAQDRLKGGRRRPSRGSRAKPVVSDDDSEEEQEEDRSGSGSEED
# Experiment: SMARCA4 ATPase activity assay (ADP-Glo, chicken mononucleosome substrate)
# Conditions: FL-SMARCA4 IC50
# Procedure: Substrates. Chicken erythrocyte mononucleosomes were prepared from fresh chicken blood collected into anticoagulant and filtered through cheesecloth. The filtered chicken blood was diluted in buffer A (10 mM Tris-HCl, pH 7.4, 10 mM NaCl, 3 mM MgCl2) and centrifuged at 500 g for 15 minutes to collect the erythrocytes. Erythrocyte nuclei were harvested by resuspending the pellets in buffer A containing 0.3% NP-40 detergent. The mixture was stirred with a magnetic bar for 10 mins and centrifuged at 4000 g for 10 minutes. Resuspension, stirring and centrifugation was repeated twice more before the final nuclei pellet was resuspended in buffer A+0.3% NP-40 and stored at −80° C. until purification. For nucleosome purification, nuclei aliquots were rapidly thawed and washed five times with buffer B (10 mM Tris-HCl, pH 7.4, 1 mM CaCl2), 1 mM PMSF) and collected by centrifugation at 2800 g for 10 minutes. Pellets were resuspended in buffer B and treated with 100 U/mL micrococcal nuclease for 40 minutes at 37° C. The reaction was terminated by the addition of 2 mM EDTA and was centrifuged at 2800 g for 10 minutes. The nuclei were then lysed by resuspending the pellet in 1 mM EDTA and 1 mM PMSF and passing the mixture through a 22G needle 4 to 5 times. The solution was then centrifuged at 15,000 g for 20 minutes and the supernatant was collected. The remaining pellet was lysed through the syringe twice more and the supernatants were pooled after centrifugation. The pooled supernatants were further purified by size exclusion chromatography (GE Sephacryl S300 HR 50/100) in buffer C (10 mM HEPES, pH 7.5, 10 mM KCl, 1 mM EDTA, 1 mM PMSF, 10% glycerol). Fractions were analyzed by agarose gel electrophoresis and SDS-PAGE and fractions containing mononucleosomes were pooled and stored at −80° C.
# The SMARCA2 or SMARCA4 ATPase assays were identical. The SMARCA2 or SMARCA4 ATPase assays were performed in a buffer consisting of 20 mM Bicine (pH 7.5), 10 mM KCl, 1 mM MgCl2, 1 mM TCEP, 0.005% BSG, and 0.002% Tween 20, prepared on the day of use. Compounds in 100% DMSO were 3-fold serially diluted to produce a 10 point curve for IC50 determination and 0.2 uL were transferred into polypropylene 384-well V-bottom plates (Greiner) using an Echo liquid handler (Labcyte). DMSO (0.2 uL) was added to Columns 11, 12, 23, 24, rows A-H for the maximum signal control and 0.2 uL doxorubicin, a known DNA intercalator, was added to columns 11, 12, 23, 24, rows I-P for the minimum signal control. The SMARCA2 or SMARCA4 enzyme (10 uL) was added to the compounds and allowed to incubate with the compounds for 30 min at room temperature. The SMARCA2 or SMARCA4 ATPase assay was initiated by the addition of 10 uL chicken mononucleosome and ATP mixture (final volume=20 uL). The final concentrations of the assay components were as follows: SMARCA2 or SMARCA4 was 5 nM, ATP was 250 uM, chicken mononucleosome was 10 nM, doxorubicin in the minimum signal control wells was 50 uM, and the DMSO concentration was 1%. 5 uL of the reaction mixture was transferred from the 384-well polypropylene plate to a white opaque polystyrene 384-well plate. At 60 minutes, the assays were terminated by the addition of 5 uL ADP-Glo™ Reagent (Promega). After 40 minutes, the luciferase reaction was initiated by the addition of 10 uL of Kinase Detection Reagent (Promega) and incubated for 1 hour. The ADP product generated from the SMARCA2 or SMARCA4 ATPase reaction was determined via luminescence intensity.
row,SMILES,IC50 [µM]
1,Cc1cc(C)n(-c2ccc(C(=O)Nc3cn(C)c(=O)cc3C)cn2)n1 [Compound 2d],> 50
2,O=C(Nc1cc(F)c(=O)n(CC(F)F)c1)c1n[nH]c(Cl)n1 [Compound 38d],> 50
3,CN(C)C(=O)c1cc(C(=O)Nc2cc(F)c(=O)n(CC(F)F)c2)sc1C(F)(F)F [Compound 36d],> 50
4,CCn1nc(NC(=O)c2cnc(Cl)s2)ccc1=O [Compound 20d],28.9
5,O=C(Nc1ccc(=O)n(CC(F)(F)F)n1)c1cc(Cl)c(Cl)s1 [Compound 21d],> 50
6,N[C@H]1CC[C@H](C#Cc2cc(C(=O)Nc3cc(F)c(=O)n(CC(F)F)c3)sc2Cl)CC1 [Compound 66d],1.29

# Same assay, conditions: FL-SMARCA4 IC50, Table 3a.2; SMARCA4 5 nM, ATP 250 uM, mononucleosome 10 nM
row,SMILES,IC50 [µM]
1,CCn1cc(NC(=O)c2nc3cc(F)c(Cl)cc3s2)ccc1=O [Compound 46a],41.1
2,CCn1cc(NC(=O)c2cn3cc(Cl)c(F)cc3n2)ccc1=O [Compound 45a],> 50
3,CN1CC(C(=O)Nc2cc(F)c(=O)n(CCF)c2)CCC1=O (stereo not drawn) [Compound 49a],> 50
4,CCn1cc(NC(=O)c2sc3ccccc3c2C)ccc1=O [Compound 40a],> 50
5,CO[C@H]1C[C@@H](C(=O)Nc2cc(Cl)c(=O)n(C)c2)N(C)C1 [Compound 11a],> 50
6,CCn1cc(NC(=O)c2cn3ccccc3n2)ccc1=O [Compound 20a],> 50

# Same assay, conditions: FL-SMARCA4 IC50, Table 3.2; ATPase assay, enzyme 5 nM, ATP 250 uM, chicken mononucleosome 10 nM, 30 min preincubation
row,SMILES,IC50 [µM]
1,CC(=O)Nc1sc(C(=O)Nc2cc(F)c(=O)n(CCF)c2)cc1Cl [Compound 315],> 50
2,CCn1cc(NC(=O)c2cc(CN(C)C)cs2)ccc1=O [Compound 98],> 50
3,CCc1cc(NC(=O)c2cc(Cl)c(Cl)s2)cn(C)c1=O [Compound 185],> 50
4,Cn1cc(C(=O)Nc2cc(F)c(=O)n(CCF)c2)sc1=O [Compound 227],> 50
5,Cn1cc(NC(=O)c2cc(Cl)cs2)cc(Br)c1=O [Compound 8],> 50
6,CCn1cc(NC(=O)c2cc(Cl)c(Cl)n2C2CC2)ccc1=O [Compound 62],> 50
7,N#Cc1cc(C(=O)Nc2cc(F)c(=O)n(CCF)c2)oc1C#N [Compound 246],6.37
8,CNC(=O)c1sc(C(=O)Nc2cc(F)c(=O)n(CCF)c2)cc1Cl [Compound 278],> 50
9,CCn1cc(NC(=O)c2cnc(NC3CCCC3)s2)ccc1=O [Compound 216],> 50
10,CCn1cc(NC(=O)c2csc(C(F)(F)F)n2)ccc1=O [Compound 25],> 50
11,CCn1cc(NC(=O)c2cc(C#N)c(C#N)s2)ccc1=O [Compound 181],0.313
12,O=C(Nc1cc(F)c(=O)n(CCF)c1)c1ccc(-c2cccnc2)s1 [Compound 313],> 50
13,CCn1cc(NC(=O)c2ccc(Cl)s2)ccc1=O [Compound 40],11.6
14,NS(=O)(=O)c1cc(C(=O)Nc2cc(F)c(=O)n(CCF)c2)sc1Cl [Compound 310],> 50
15,CC(C)Cn1cc(NC(=O)c2cc(Cl)c(Cl)s2)ccc1=O [Compound 76],> 50
16,O=C(Nc1cc(F)c(=O)n(CCF)c1)c1cnc(Cl)o1 [Compound 253],> 50
17,CCn1cc(NC(=O)c2ccc(Cl)o2)ccc1=O [Compound 20],> 50

row,SMILES,IC50 [µM]
1,CCn1cc(NC(=O)c2cc(Cl)c(-c3ncco3)s2)ccc1=O [Compound 283],> 50
2,CCn1cc(NC(=O)c2cc(OC)c(OC)s2)ccc1=O [Compound 171],> 50
3,CCn1cc(NC(=O)c2csc(Cl)n2)ccc1=O [Compound 147],> 50
4,CCn1cc(NC(=O)c2cc(Cl)c(Cl)s2)cc(NC)c1=O [Compound 126],> 50
5,CCn1cc(NC(=O)c2cc(C#N)c(Cl)s2)cc(Cl)c1=O [Compound 172],1.07
6,CCn1cc(NC(=O)c2cc(C(F)(F)F)nn2C)ccc1=O [Compound 15],> 50
7,CCn1cc(NC(=O)c2nc(Cl)cs2)ccc1=O [Compound 63],> 50
8,CCn1cc(NC(=O)c2csc(C#N)n2)ccc1=O [Compound 199],> 50
9,CCn1cc(NC(=O)c2cn(C)nc2C(F)(F)F)ccc1=O [Compound 31],> 50
10,CCn1cc(NC(=O)c2cc(C)oc2C)ccc1=O [Compound 23],> 50
11,CCn1cc(NC(=O)c2csnn2)ccc1=O [Compound 29],> 50
12,CCn1cc(NC(=O)c2nc(Br)cs2)ccc1=O [Compound 30],> 50
13,CCn1cc(NC(=O)c2cn(C)nc2C(F)F)ccc1=O [Compound 28],> 50
14,CCn1cc(NC(=O)c2cc(C)n[nH]2)ccc1=O [Compound 27],> 50
15,CCn1cc(NC(=O)c2cc(C3CC3)on2)ccc1=O [Compound 24],> 50
16,N#Cc1cc(C(=O)Nc2cc(C#N)c(=O)n(CCF)c2)sc1Cl [Compound 321],0.635

# Same assay, conditions: FL-SMARCA4 IC>50, Table 3c.2; ATPase assay, enzyme 5 nM, ATP 250 uM, chicken mononucleosome 10 nM, 30 min preincubation
row,SMILES,IC50 [µM]
1,O=C(Nc1cc(CO)c(=O)n(CC(F)F)c1)c1cc(F)c(Cl)s1 [Compound 12c],> 50
2,O=C(Nc1cc(F)c(=O)n(CC(F)F)c1)c1cc(C#Cc2cn3ccccc3n2)c(Cl)s1 [Compound 6c],0.679
3,O=C(Nc1cc(F)c(=O)n(CC(F)F)c1)c1cc2cc(-c3ccncc3)ccc2s1 [Compound 84c],28.9
4,O=C(Nc1cc(F)c(=O)n(CC(F)F)c1)c1cc2c(s1)C(F)(F)CNC2 [Compound 114c],> 50
5,O=C(O)c1cccc(C#Cc2cc(C(=O)Nc3cc(F)c(=O)n(CC(F)F)c3)ccn2)c1 [Compound 132c],11.3
